Results reported in patent US20230346986A1, “METHODS AND AGENTS FOR THE DETECTION AND TREATMENT OF CANCER” (CASE WESTERN RESERVE UNIVERSITY, priority 2019, published 2023).

Target: T1, PSMA (Homo sapiens, UniProt Q04609)
T1 construct: endogenous in cells; host or cells: LNcap cells
Test: Competition binding assay with 3H-ZJ24 on LNcap cells
Details: 3H-ZJ24 12 nmol/L, 1 h at 37° C.
Experimental: […] used to test the binding affinity of NPs. Specifically, […] cultured in RPMI1640 medium, harvested, washed with 0.5 mM cold Tris buffer, and divided into 1.5 mL Eppendorf tubes at 5×10^5 cells per tube. […] All the tubes were then centrifuged and cells were washed three times with cold PBS. […] The concentration of ligands required to inhibit 50% of binding (IC50) was determined using GraphPad Prism 3.0.

T1 sequence (Q04609 whole entry): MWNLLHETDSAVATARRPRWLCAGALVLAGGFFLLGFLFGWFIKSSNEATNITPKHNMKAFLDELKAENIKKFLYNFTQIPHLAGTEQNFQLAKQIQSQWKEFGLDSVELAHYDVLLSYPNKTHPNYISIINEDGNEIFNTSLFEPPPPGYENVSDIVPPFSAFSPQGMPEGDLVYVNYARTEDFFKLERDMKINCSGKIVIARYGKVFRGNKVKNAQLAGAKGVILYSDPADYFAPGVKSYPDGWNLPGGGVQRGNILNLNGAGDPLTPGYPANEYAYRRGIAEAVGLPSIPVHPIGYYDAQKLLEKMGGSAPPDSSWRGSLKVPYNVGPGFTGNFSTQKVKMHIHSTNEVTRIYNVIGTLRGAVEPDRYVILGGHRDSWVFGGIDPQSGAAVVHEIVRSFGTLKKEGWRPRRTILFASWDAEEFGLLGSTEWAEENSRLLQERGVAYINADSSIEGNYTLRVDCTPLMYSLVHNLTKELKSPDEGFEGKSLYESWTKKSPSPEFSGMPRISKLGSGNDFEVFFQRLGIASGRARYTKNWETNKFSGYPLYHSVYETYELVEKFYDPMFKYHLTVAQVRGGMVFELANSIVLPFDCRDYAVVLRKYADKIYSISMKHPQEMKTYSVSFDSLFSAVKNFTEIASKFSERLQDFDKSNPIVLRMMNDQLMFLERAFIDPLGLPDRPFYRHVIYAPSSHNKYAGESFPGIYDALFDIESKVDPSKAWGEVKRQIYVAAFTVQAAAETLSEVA

IC50: 9.79 nM
Structure (SMILES): CSC[C@H](NC(=O)N[C@@H](CCC(=O)O)C(=O)O)C(=O)O [ZJ24]
